Tested on: human DMS
Test: In vivo assay: intracerebral injection of human DMS plus compound into rats, histology of DMS disruption site
Details: for Mean Volume Disrupted DMS: mean tissue volume of transformed redistributed disrupted DMS protein per individual DMS, rats, about 100,000 human DMS and compound at 10^−5M; for Persistence of Inflamm. Reaction: ratio of number of acute inflammatory cells (excluding macrophages) per DMS at the DMS disruption site; for Persistence of Inflamm. Reaction / Digestion and removal of DMS: compared to control (ii) normalized to 1.0, compound at 10^−5M; for Digestion and removal of DMS: ratio of number of macrophages containing DMS material per DMS at the DMS disruption site

Row | Structure (SMILES) | Mean Volume Disrupted DMS | Persistence of Inflamm. Reaction | Digestion and removal of DMS
1 | CC(Cc1ccccc1)N1CCN(C(c2ccccc2)c2ccccc2)CC1 (racemic) [Compound 1, (±)-1-(1-Phenylisopropyl)-4-(diphenylmethyl)piperazine] | 1250 μ^3 | <0.01 | >10
2 | Clc1ccc2c(c1)C(N1CCNCC1)=Nc1ccccc1O2 [Amoxepine] | 1.36 × 10^5 μ^3 | 1.1 | 1.0
3 | CN1[C@@H]2CC[C@H]1C[C@@H](OC(=O)C(CO)c1ccccc1)C2 (stereo partly drawn) [Atropine] |  | 1.0 | 1.0
4 | CC(C)C[C@H]1C(=O)N2CCC[C@H]2[C@]2(O)O[C@](NC(=O)[C@@H]3C=C4c5cccc6[nH]c(Br)c(c56)C[C@H]4N(C)C3)(C(C)C)C(=O)N12 [Bromocriptine] | 1.04 × 10^5 μ^3 | 1.0 | 1.0
5 | c1ccc(C(OCCOC(c2ccccc2)c2ccccc2)c2ccccc2)cc1 [Compound 2, 1,2-Bis(diphenylmethoxy)ethane] | 560 μ^3 | <0.01 | >10
6 | Clc1ccc(C(OCCOC(c2ccccc2)c2ccc(Cl)cc2)c2ccccc2)cc1 (stereo not drawn) [Compound 4, 1,2-Bis(4chlorophenylphenylmethoxy)ethane] | 580 μ^3 | <0.01 | >10
7 | FC(F)(F)c1ccc(C(OCCOC(c2ccccc2)c2ccc(C(F)(F)F)cc2)c2ccccc2)cc1 (stereo not drawn) [Compound 5, 1,2-Bis(4-trifluoromethylphenylphenylmethoxy)ethane] | 940 μ^3 | <0.01 | >10
8 | Cc1ccccc1C(OCCOC(c1ccccc1)c1ccccc1C)c1ccccc1 (stereo not drawn) [Compound 6, 1,2-Bis(2-methylphenylphenylmethoxy)ethane] | 940 μ^3 | <0.01 | >10
9 | CN(CCC=C1c2ccccc2CCc2ccccc21)CCOC(c1ccccc1)c1ccccc1 [Compound 9, 3-(10,11-Dihydro-5H-dibenzo[a,d]cyclohepten-5-ylidene-N-methyl-N-[2-(diphenylmethoxy)ethyl)]-1-propaneamine] | 482 μ^3 | <0.01 | >10
10 | CN(CCC=C1c2ccccc2CCc2ccccc21)CCOC(c1ccccc1)c1ccc(Cl)cc1 (stereo not drawn) [Compound 10, 3-(10,11-Dihydro-5H-dibenzo[a,d]cyclohepten-5-ylidene-N-methyl-N-[2-(4-chlorophenylphenylmethoxy)ethyl)]-1-propaneamine] | 460 μ^3 | <0.01 | >10
11 | COC(=O)C1=C(C)N(CCOC(c2ccccc2)c2ccccc2)C(C)=C(C(=O)OC)C1c1ccccc1 [Compound 11] | 1260 μ^3 | <0.01 | >10
12 | CC(COc1ccc(/C(=C/c2ccccc2)c2ccccc2)cc1)N1CCN(C(c2ccccc2)c2ccccc2)CC1 (stereo not drawn) [Compound 12] | 740 μ^3 | <0.01 | >10
13 | Cn1cnc2c1c(=O)n(CCOC(c1ccccc1)c1ccccc1)c(=O)n2C [Compound 13] | 1625 μ^3 | <0.01 | >10
14 | Cn1cnc2c1c(=O)n(CCOC(c1ccccc1)c1ccc(Cl)cc1)c(=O)n2C (stereo not drawn) [Compound 14] | 1625 μ^3 | <0.01 | >10
15 | CN1C(=O)CN=C(c2ccccc2)c2cc(Cl)ccc21 [Diazepam] | 6.5 × 10^4 μ^3 | 1.1 | 1.0
16 | CC[N+](C)(C)c1cccc(O)c1 [Edrophonium Chloride] |  | 1.0 | 1.0
17 | C[C@@H](CO)NC(=O)[C@@H]1C=C2c3cccc4[nH]cc(c34)C[C@H]2N(C)C1 [Ergonovine] | 5.2 × 10^4 μ^3 | 1.0 | 1.0
18 | CN1C[C@H](C(=O)N[C@]2(C)O[C@@]3(O)[C@@H]4CCCN4C(=O)[C@H](Cc4ccccc4)N3C2=O)C=C2c3cccc4[nH]cc(c34)C[C@H]21 [Ergotamine] | 5.8 × 10^4 μ^3 | 1.0 | 1.0
19 | CN(C)CCCN1c2ccccc2CCc2ccccc21 [Imipramine] | 1.38 × 10^5 μ^3 | 1.0 | 1.0
20 | O=C1Nc2ccc(Cl)cc2C(c2ccccc2Cl)=NC1O (stereo not drawn) [Lorazepam] | 8.2 × 10^4 μ^3 | 1.1 | 1.0
21 | CCOC(=O)C1(c2ccccc2)CCN(C)CC1 [Meperidine] | 2.1 × 10^5 μ^3 | 1.0 | 1.0
22 | COC(=O)C(c1ccccc1)C1CCCCN1 (stereo not drawn) [Methylphenidate] | 5.8 × 10^4 μ^3 | 1.1 | 1.01
23 | CN(C)C(=O)Oc1cccc([N+](C)(C)C)c1 [Neostigmine] | 1.4 × 10^5 μ^3 | 1.1 | 1.0
24 | O=C1Nc2ccc(Cl)cc2C(c2ccccc2)=NC1O (stereo not drawn) [Oxazepam] | 6.8 × 10^4 μ^3 | 1.1 | 1.0
25 | CCCN1C[C@H](CSC)C[C@@H]2c3cccc4[nH]cc(c34)C[C@H]21 [Pergolide] | 1.2 × 10^5 μ^3 | 1.1 | 1.0
26 | CNC(=O)Oc1ccc2c(c1)[C@]1(C)CCN(C)[C@@H]1N2C [Physostigmine] | 1.1 × 10^5 μ^3 | 1.0 | 1.0
27 | CC[C@@H]1C(=O)OC[C@@H]1Cc1cncn1C [Pilocarpine] | 1.7 × 10^5 μ^3 | 1.1 | 1.0
28 | CN(C)C(=O)Oc1ccc[n+](C)c1 [Pyridostigmine bromide] |  | 1.1 | 1.0
29 | C#CCN(C)[C@H](C)Cc1ccccc1 [Selegiline] | 1.3 × 10^5 μ^3 | 1.0 | 1.0
30 | Nc1c2c(nc3ccccc13)CCCC2 [Tacrine] | 1.4 × 10^5 μ^3 | 1.1 | 1.0

Source: patent publication US6518314B1, “Pharmaceutical agents that impede the initiation and progression of primary and secondary DMS disruptions” (Nymox Corporation, priority 1997, dated 2003)
